In patent US20120177693A1, “DEEP LUNG PULMONARY DELIVERY OF TREPROSTINIL” (Aradigm Corporation, priority 2008, published 2012):

What was measured:
[1] = male, human, in vivo
[2] = Venous plasma pharmacokinetics of inhaled treprostinil via AERx Essence or Nebu-Tec Optineb, 14 healthy male subjects; settings: for Dose-normalised AUCI / Dose-normalised AUCT / Dose-normalised Cmax: dose-normalised for the calculated dose to lung (μg); for AUCINF_obs_D (dose normalised AUCI) / AUClast_D (dose normalised AUCT) / Cmax_D (dose normalised Cmax): normalised for dose to lung
Experimental: On each of two dosing days, eligible subjects underwent dosing with ^99mTc-labeled treprostinil sodium using either the AERx Essence System or the Nebu-Tec Optineb nebulizer. Following their initial study dose, subjects underwent a washout period of approximately 48 hours before completing a second (crossover) study dose.
Immediately following each study dose, subjects underwent gamma scintigraphy and multiple samplings of venous blood to characterize treprostinil lung deposition and plasma pharmacokinetics.
To evaluate treprostinil plasma pharmacokinetics, 16 venous blood samples were drawn into 7.5 ml Potassium EDTA monovette tubes following each study dose (i.e., Essence and Optineb). Sampling occurred approximately 1 hour prior to dosing and at +2, +3, +5, +7, +10, +15, +20, +30, +60, +90, +120, +180, +240, +300, and +360 minutes after the start of each study dose. Thus, a total of 32 blood samples (˜250 mL) were collected for pharmacokinetic assessment over the two dosing days. Immediately upon sampling the sample was identified with a bar coded label bearing details of study number, subject number, sampling time point, sample type and a unique 9 digit identification number. The sample was separated by centrifugation at 1500×g and 4° C. for 10 minutes. Two equal aliquots of plasma/serum were transferred to 2 polypropylene tubes labelled identically to the original blood sample and stored at approximately −20° C. pending analysis. The time at which samples were taken, received into the separating room and placed in the freezer was recorded in the study documentation.
The pharmacokinetic parameters Cmax, AUCT and AUCI were normalised for the dose delivered to the lung, as determined from the scintigraphy data (Tables 14.2.1.5 & 14.2.1.6).

[3] = dose-normalised for the calculated dose to lung
[4] = via Nebu-Tec, Geometric LS means

What does the source list for CCCCC[C@H](O)CC[C@@H]1[C@H]2Cc3cccc(OCC(=O)[O-])c3C[C@H]2C[C@H]1O.[Na+] [treprostinil, (1R,2R,3aS,9aS)-[[2,3,3a,4,9,9a-Hexahydro-2-hydroxyl-1-[(3S)-3-hydroxyoctyl]-1H-benz[f]inden-5-yl]oxy]acetic acid monosodium salt]?
Adverse events considered possibly related to the study medication [1]: 15; Adverse events considered probably related to study medication [1]: 11; Adverse events considered unlikely related to the study medication [1]: 1; Adverse events recorded as mild in intensity [1]: 23; Adverse events recorded as moderate in intensity [1]: 4; Number of Subjects (% brackets) with CHEST DISCOMFORT [1]: 2 (14.3); Number of Subjects (% brackets) with COUGH [1]: 6 (42.9); Number of Subjects with CHEST DISCOMFORT, relationship POSSIBLE [1]: 1; Number of Subjects with CHEST DISCOMFORT, relationship PROBABLE [1]: 1; Number of Subjects with CHEST DISCOMFORT, relationship UNLIKELY [1]: 0; Number of Subjects with COUGH, relationship UNLIKELY [1]: 0; Number of Subjects with DIZZINESS, relationship POSSIBLE [1]: 2; Number of Subjects with DIZZINESS, relationship PROBABLE [1]: 0; Number of Subjects with DIZZINESS, relationship UNLIKELY [1]: 0; Number of Subjects with DRY THROAT, relationship POSSIBLE [1]: 1; Number of Subjects with DRY THROAT, relationship PROBABLE [1]: 0; Number of Subjects with DRY THROAT, relationship UNLIKELY [1]: 0; Number of Subjects with DYSPNOEA, relationship POSSIBLE [1]: 0; Number of Subjects with DYSPNOEA, relationship PROBABLE [1]: 1; Number of Subjects with DYSPNOEA, relationship UNLIKELY [1]: 0; Number of Subjects with HEADACHE, relationship PROBABLE [1]: 0; Number of Subjects with HEADACHE, relationship UNLIKELY [1]: 0; Number of Subjects with PHARYNG[…], relationship POSSIBLE [1]: 1; Number of Subjects with PHARYNG[…], relationship PROBABLE [1]: 0; Number of Subjects with PHARYNG[…], relationship UNLIKELY [1]: 0; Number of Subjects with PLEURITIC PAIN, relationship POSSIBLE [1]: 0; Number of Subjects with PLEURITIC PAIN, relationship PROBABLE [1]: 1; Number of Subjects with PLEURITIC PAIN, relationship UNLIKELY [1]: 0; Number of Subjects with SYNCOPE VASOVAGAL, relationship POSSIBLE [1]: 1; Number of Subjects with SYNCOPE VASOVAGAL, relationship PROBABLE [1]: 0; Number of Subjects with SYNCOPE VASOVAGAL, relationship UNLIKELY [1]: 0; Total treatment emergent adverse events [1]: 27; Vaso-vegal episode, duration [1]: 14 min; Vaso-vegal episode, time of occurrence after administration [1]: 22 min; Tmax, Median Diff. AERx vs Nebu-Tec ([2]; Wilcoxon Matched Pairs Test): 11.5 min; Dose-normalised AUCI, AERx/Nebu-Tec Ratio of geometric LS means [2, 3]: 101.79%; Dose-normalised AUCT, AERx/Nebu-Tec Ratio of geometric LS means [2, 3]: 103.24%; Dose-normalised Cmax, AERx/Nebu-Tec Ratio of geometric LS means ([2]; dose-normalised for the calculated dose to lung, monosodium salt): 61.51%; Tmax ([2]; human, plasma, inhaled, Tmax, one subject in the nebulizer arm with delayed Tmax): ~20 min; AUC ([2]; male, human, plasma, inhaled, 19.58 μg): 0.53 ng·h/mL; AUC(0-inf) ([2]; male, human, plasma, inhaled, 19.58 μg, AUCINF—obs, via Optineb, GM): 0.533 ng·h/mL; AUC(0-inf) ([2]; male, human, plasma, inhaled, 19.58 μg, AUCINF—obs, via Optineb, Median): 0.546 ng·h/mL; AUC(0-t) ([2]; male, human, plasma, inhaled, 19.58 μg, AUCT, via Nebu-Tec, Geometric LS means): 0.51 ng·h/mL; AUC(0-t) ([2]; male, human, plasma, inhaled, 19.58 μg, AUClast, via Optineb, GM): 0.51 ng·h/mL; AUC(0-t) ([2]; male, human, plasma, inhaled, 19.58 μg, AUClast, via Optineb, Median): 0.531 ng·h/mL; Cmax ([2]; male, human, plasma, inhaled, 19.58 μg, Cmax, via Nebu-Tec, Geometric LS means): 0.71 ng/mL; Cmax ([2]; male, human, plasma, inhaled, 19.58 μg, Cmax, via Optineb, GM (geometric mean)): 0.707 ng/mL; Cmax ([2]; male, human, plasma, inhaled, 19.58 μg, Cmax, via Optineb, Median): 0.696 ng/mL; half-life ([2]; male, human, plasma, inhaled, 19.58 μg, T1/2, via Optineb, GM): 38.5 min; half-life ([2]; male, human, plasma, inhaled, 19.58 μg, T1/2, via Optineb, Median): 37.3 min; Tmax ([2]; male, human, plasma, inhaled, 19.58 μg, Tmax, via Nebu-Tec, Median): 8.5 min; Tmax ([2]; male, human, plasma, inhaled, 19.58 μg, Tmax, via Optineb, Median): 8.52 min; AUC(0-inf) ([2]; male, human, plasma, inhaled, 26 μg, AUCINF—obs, via AERx, GM): 0.731 ng·h/mL; AUC(0-inf) ([2]; male, human, plasma, inhaled, 26 μg, AUCINF—obs, via AERx, Median): 0.767 ng·h/mL; AUC(0-t) ([2]; male, human, plasma, inhaled, 26 μg, AUClast, via AERx, GM): 0.709 ng·h/mL; AUC(0-t) ([2]; male, human, plasma, inhaled, 26 μg, AUClast, via AERx, Median): 0.749 ng·h/mL; Cmax ([2]; male, human, plasma, inhaled, 26 μg, Cmax, via AERx, GM (geometric mean)): 0.586 ng/mL; Cmax ([2]; male, human, plasma, inhaled, 26 μg, Cmax, via AERx, Median): 0.548 ng/mL; half-life ([2]; male, human, plasma, inhaled, 26 μg, T1/2, via AERx, GM): 46.3 min; half-life ([2]; male, human, plasma, inhaled, 26 μg, T1/2, via AERx, Median): 43.6 min; Tmax ([2]; male, human, plasma, inhaled, 26 μg, Tmax, via AERx, Median): 25 min; AUC ([2]; male, human, plasma, inhaled, 26.07 μg): 0.73 ng·h/mL; AUC(0-t) ([2]; male, human, plasma, inhaled, 26.07 μg, AUCT, via AERx, Geometric LS means): 0.71 ng·h/mL; Cmax ([2]; male, human, plasma, inhaled, 26.07 μg, Cmax, via AERx, Geometric LS means): 0.59 ng/mL; Tmax ([2]; male, human, plasma, inhaled, 26.07 μg, Tmax, via AERx, Median): 25 min; Vd/F ([2]; male, human, plasma, inhaled, 2 AERx strips): 44 L; AUC(0-inf) ([2]; male, human, plasma, inhaled, 2 AERx strips, AUCINF—obs (AUCI), via AERx, Mean): 0.762 ng·h/mL; AUC(0-t) ([2]; male, human, plasma, inhaled, 2 AERx strips, AUClast (AUCT), via AERx, Mean): 0.742 ng·h/mL; Cmax ([2]; male, human, plasma, inhaled, 2 AERx strips, Cmax, via AERx, Mean): 0.64 ng/mL; half-life ([2]; male, human, plasma, inhaled, 2 AERx strips, T1/2 (elimination half life), via AERx, Mean): 52.2 min; Tmax ([2]; male, human, plasma, inhaled, 2 AERx strips, Tmax, via AERx, Mean): 20.6 min; Vd/F ([2]; male, human, plasma, inhaled, 6 puffs): 36 L; AUC(0-inf) ([2]; male, human, plasma, inhaled, 6 puffs, AUCINF—obs (AUCI), via Optineb, Mean): 0.553 ng·h/mL; AUC(0-t) ([2]; male, human, plasma, inhaled, 6 puffs, AUClast (AUCT), via Optineb, Mean): 0.531 ng·h/mL; Cmax ([2]; male, human, plasma, inhaled, 6 puffs, Cmax, via Optineb, Mean): 0.762 ng/mL; half-life ([2]; male, human, plasma, inhaled, 6 puffs, T1/2 (elimination half life), via Optineb, Mean): 40.1 min; Tmax ([2]; male, human, plasma, inhaled, 6 puffs, Tmax, via Optineb, Mean): 8.94 min; Tmax ([2]; male, human, plasma, inhaled, TMAX, via AERx Essence System, mean): 21 min; Tmax ([2]; male, human, plasma, inhaled, TMAX, via nebulizer (Nebu-Tec OPTINEB), mean): 9 min; AUCI, AERx/Nebu-Tec Ratio of geometric LS means ([2]; not dose adjusted): 137.15%; AUCT, AERx/Nebu-Tec Ratio of geometric LS means ([2]; not dose adjusted): 139.11%; Cmax, AERx/Nebu-Tec Ratio of geometric LS means ([2]; not dose adjusted): 82.88%; Cmax_D ([2]; via AERx, GM): 0.023 ng/mL/µg; Vz_F_obs ([2]; via AERx, GM): 38614.996 mL; Dose-normalised AUCI ([2]; via AERx, Geometric LS means): 0.029 ng·h/mL; Dose-normalised AUCT ([2]; via AERx, Geometric LS means): 0.028 ng·h/mL; Dose-normalised Cmax ([2]; via AERx, Geometric LS means): 0.023 ng/mL; AUCINF—obs ([2]; via AERx, Max): 1.205 ng·h/mL; AUClast ([2]; via AERx, Max): 1.196 ng·h/mL; Cmax ([2]; via AERx, Max): 1.347 ng/mL; Cmax_D ([2]; via AERx, Max): 0.044 ng/mL/µg; T1/2 ([2]; via AERx, Max): 163.9 min; Tmax ([2]; via AERx, Max): 30 min; Vz_F_obs ([2]; via AERx, Max): 133550.416 mL; AUCINF_obs_D (dose normalised AUCI) ([2]; via AERx, Mean): 0.029 ng·h/mL/µg; AUClast_D (dose normalised AUCT) ([2]; via AERx, Mean): 0.028 ng·h/mL/µg; Cmax_D (dose normalised Cmax) ([2]; via AERx, Mean): 0.024 ng/mL/µg; Cmax_D ([2]; via AERx, Median): 0.022 ng/mL/µg; Vz_F_obs ([2]; via AERx, Median): 34319.392 mL; AUCINF—obs ([2]; via AERx, Min): 0.407 ng·h/mL; AUClast ([2]; via AERx, Min): 0.375 ng·h/mL; Cmax ([2]; via AERx, Min): 0.299 ng/mL; Cmax_D ([2]; via AERx, Min): 0.016 ng/mL/µg; T1/2 ([2]; via AERx, Min): 28.3 min; Tmax ([2]; via AERx, Min): 7.02 min; Vz_F_obs ([2]; via AERx, Min): 21692.705 mL; Dose-normalised AUCI [2, 4]: 0.028 ng·h/mL; Dose-normalised AUCT [2, 4]: 0.027 ng·h/mL; Dose-normalised Cmax [2, 4]: 0.037 ng/mL; Cmax_D ([2]; via Optineb, GM): 0.037 ng/mL/µg; Vz_F_obs ([2]; via Optineb, GM): 32721.114 mL; AUCINF—obs ([2]; via Optineb, Max): 0.852 ng·h/mL; AUClast ([2]; via Optineb, Max): 0.816 ng·h/mL; Cmax ([2]; via Optineb, Max): 1.559 ng/mL; Cmax_D ([2]; via Optineb, Max): 0.069 ng/mL/µg; T1/2 ([2]; via Optineb, Max): 66.42 min; Tmax ([2]; via Optineb, Max): 20 min; Vz_F_obs ([2]; via Optineb, Max): 92051.057 mL; AUCINF_obs_D (dose normalised AUCI) ([2]; via Optineb, Mean): 0.030 ng·h/mL/µg; AUClast_D (dose normalised AUCT) ([2]; via Optineb, Mean): 0.029 ng·h/mL/µg; Cmax_D (dose normalised Cmax) ([2]; via Optineb, Mean): 0.041 ng/mL/µg; Cmax_D ([2]; via Optineb, Median): 0.037 ng/mL/µg; Vz_F_obs ([2]; via Optineb, Median): 32525.036 mL; AUCINF—obs ([2]; via Optineb, Min): 0.360 ng·h/mL; AUClast ([2]; via Optineb, Min): 0.315 ng·h/mL; Cmax ([2]; via Optineb, Min): 0.312 ng/mL; Cmax_D ([2]; via Optineb, Min): 0.017 ng/mL/µg; T1/2 ([2]; via Optineb, Min): 25.6 min; Tmax ([2]; via Optineb, Min): 4.98 min; Vz_F_obs ([2]; via Optineb, Min): 16866.083 mL
